Key:
Assay in all cases: relative viability (nuclei count vs DMSO), 5 days (fraction); higher = more cells survive
[1] = compound: CC(C)=CC[C@@H](O)C1=CC(=O)c2c(O)ccc(O)c2C1=O [Shikonin] + CC(=O)c1c(C)c2cnc(Nc3ccc(N4CCNCC4)cn3)nc2n(C2CCCC2)c1=O [Palbociclib] (partner 0.5 µM)
Procedure, shortened: (§1)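 Five library-drug doses in √10 steps were combined with a fixed anchor-drug dose, or a single drug was given alone, by pin tool to lung cancer cell lines in 1536-well plates the day after seeding. Nuclei were stained and counted after 5 days. Relative viability is the nuclei count in treated wells over that in vehicle wells, taken as the median of duplicate plates.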

[2] = compound: CC(C)N(CCCNC(=O)Nc1ccc(C(C)(C)C)cc1)C[C@H]1O[C@@H](n2ccc3c(N)ncnc32)[C@H](O)[C@@H]1O + Cc1nc(Nc2ncc(C(=O)Nc3c(C)cccc3Cl)s2)cc(N2CCN(CCO)CC2)n1 [Dasatinib] (partner 0.075 µM)
Procedure, shortened: as §1

[3] = compound: CC(C)N(CCCNC(=O)Nc1ccc(C(C)(C)C)cc1)C[C@H]1O[C@@H](n2ccc3c(N)ncnc32)[C@H](O)[C@@H]1O + CC1(C)CCC(c2ccc(Cl)cc2)=C(CN2CCN(c3ccc(C(=O)NS(=O)(=O)c4ccc(N[C@H](CCN5CCOCC5)CSc5ccccc5)c(S(=O)(=O)C(F)(F)F)c4)cc3)CC2)C1 [Navitoclax] (partner 0.5 µM)
Procedure, shortened: as §1

[4] = compound: CC(C)N(CCCNC(=O)Nc1ccc(C(C)(C)C)cc1)C[C@H]1O[C@@H](n2ccc3c(N)ncnc32)[C@H](O)[C@@H]1O + CS(=O)(=O)N1CCN(Cc2cc3nc(-c4cccc5[nH]ncc45)nc(N4CCOCC4)c3s2)CC1 [Pictilisib] (partner 1 µM)
Procedure, shortened: as §1

**Q.** For UMC-11, which relative viability ([1]; first compound 0.01 µM) is on record?
**A.** Its relative viability is 0.297.

**Q.** What about the relative viability ([1]; first compound 0.1 µM) of the same cell line?
**A.** Its relative viability is 0.351.

**Q.** And the relative viability ([1]; first compound 0.3162 µM)?
**A.** The relative viability was 0.335.

**Q.** And the relative viability ([1]; first compound 1 µM)?
**A.** The relative viability was 0.338.

**Q.** What about the relative viability ([2]; first compound 0.08 µM) of the same cell line?
**A.** The relative viability was 0.461.

**Q.** What about the relative viability ([2]; first compound 0.253 µM) of the same cell line?
**A.** The relative viability was 0.422.

**Q.** And the relative viability ([2]; first compound 0.8 µM)?
**A.** The relative viability was 0.436.

**Q.** And the relative viability ([2]; first compound 2.53 µM)?
**A.** The relative viability was 0.486.

**Q.** What about the relative viability ([2]; first compound 8 µM) of the same cell line?
**A.** The relative viability was 0.492.

**Q.** And the relative viability ([3]; first compound 0.08 µM)?
**A.** Its relative viability is 0.296.

**Q.** And the relative viability ([3]; first compound 0.253 µM)?
**A.** Its relative viability is 0.329.

**Q.** What about the relative viability ([3]; first compound 0.8 µM) of the same cell line?
**A.** Its relative viability is 0.319.

**Q.** And the relative viability ([3]; first compound 2.53 µM)?
**A.** Its relative viability is 0.302.

**Q.** And the relative viability ([3]; first compound 8 µM)?
**A.** Its relative viability is 0.294.

**Q.** What about the relative viability ([4]; first compound 0.08 µM) of the same cell line?
**A.** Its relative viability is 0.683.

**Q.** And the relative viability ([4]; first compound 0.253 µM)?
**A.** Its relative viability is 0.662.

**Q.** And the relative viability ([4]; first compound 0.8 µM)?
**A.** Its relative viability is 0.783.

**Q.** And the relative viability ([4]; first compound 2.53 µM)?
**A.** The relative viability was 0.805.

**Q.** What about the relative viability ([4]; first compound 8 µM) of the same cell line?
**A.** Its relative viability is 0.745.
